Test systems include SNB-75; SF-295; MDA-MB-435; MOLT-4; SK-MEL-2; OVCAR-4; K562; UO-31; UACC-62; PC-3; 786-0; MDA-N; OVCAR-5; RXF 393; HCC 2998; OVCAR-3; UACC-257; EKVX; HCT-116; SF-539.
Common to all, as to test: NCI-60 cell line screen, 48 h

Molecules are shown by their SMILES.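 Assay format: 96-well plates, 48-hour exposure. The concentration for 50% growth inhibition is given as GI50.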 Activity calls are given as the source filed them. Cut-off read from the data, not from the text of the source: active = GI50 up to about 1.1 µM and inactive = higher.

Regarding `O=C(NCCO)c1ccc(Cl)cc1`, the GI50 in the assay with SNB-75, in the assay with SF-295, with MDA-MB-435, in the assay on MOLT-4, with SK-MEL-2 and with OVCAR-4 was > 100 µM (inactive) each time. Further, the GI50 with K562, in the assay with UO-31, in the assay with UACC-62, with PC-3, with 786-0 and with MDA-N was > 100 µM (inactive) each time. The GI50 in the assay on OVCAR-5, with RXF 393, with HCC 2998, with OVCAR-3, in the assay on UACC-257 and in the assay on EKVX was > 100 µM (inactive) each time. Besides, the GI50 in the assay with HCT-116 was > 100 µM (inactive).

Take `Cc1c(N=C(S)Nc2ccc(Cl)cc2)c(=O)n(-c2ccccc2)n1C`: the GI50 in the assay with SNB-75, with SF-295, in the assay with MDA-MB-435, in the assay on MOLT-4, in the assay on K562 and in the assay with UO-31 was > 100 µM (inactive) throughout. In addition, the GI50 in the assay on UACC-62, in the assay on PC-3, in the assay on 786-0, with MDA-N, in the assay with SF-539 and in the assay on OVCAR-5 was > 100 µM (inactive) each time. The GI50 in the assay with RXF 393, in the assay on HCC 2998, in the assay on OVCAR-3, with UACC-257, with EKVX and in the assay on HCT-116 was > 100 µM (inactive) in each case.

In the case of `O=C1CSC(c2c(O)ccc3ccccc23)N1n1c(S)nnc(/C=C/c2c(O)ccc3ccccc23)c1=O` (stereo unspecified), the GI50 in the assay with SNB-75 was 1.5 µM (inactive); with SF-295 it was 6.71 µM (inactive); with MDA-MB-435, 0.966 µM (active); in the assay on MOLT-4, 17.9 µM (inactive); in the assay with SK-MEL-2, 1.17 µM (inactive); with OVCAR-4 it was 0.583 µM (active). Moreover, the GI50 in the assay on K562 was 0.521 µM (active); in the assay on UO-31, 0.92 µM (active); in the assay with UACC-62, 0.705 µM (active); in the assay on PC-3 it was 3.18 µM (inactive); with 786-0, 0.662 µM (active); in the assay on MDA-N, 4.05 µM (inactive). For the same compound, the GI50 was 1.99 µM (inactive) in the assay with OVCAR-5; 1.45 µM (inactive) with RXF 393; 1.11 µM (active) with HCC 2998; 0.387 µM (active) with OVCAR-3; 1.43 µM (inactive) with UACC-257; 6.15 µM (inactive) in the assay with EKVX. Moreover, the GI50 in the assay with HCT-116 is 0.359 µM (active).

For the compound `O=c1ccn2n1CCCCC2`, the GI50 in the assay with SF-295, in the assay with MDA-MB-435, with MOLT-4, in the assay with SK-MEL-2, in the assay on OVCAR-4 and with K562 was > 100 µM (inactive) in each case. Besides, the GI50 in the assay on UO-31, in the assay on UACC-62, in the assay on PC-3, in the assay on 786-0, in the assay with MDA-N and with SF-539 was > 100 µM (inactive) each time. The GI50 in the assay with OVCAR-5, with RXF 393, with HCC 2998, in the assay with OVCAR-3, in the assay on UACC-257 and in the assay on EKVX was > 100 µM (inactive) each time. Further, the GI50 in the assay with HCT-116 is > 100 µM (inactive).

Take `CC(=O)OCCCCn1cc(Cn2ccc(=O)n(Cc3cn(CCCCOC(C)=O)nn3)c2=O)nn1`: the GI50 with SNB-75, in the assay on SF-295, in the assay on MDA-MB-435, in the assay on MOLT-4, in the assay with SK-MEL-2 and in the assay with OVCAR-4 was > 100 µM (inactive) each time. For the same compound, the GI50 in the assay with UO-31, with UACC-62, in the assay with PC-3, with 786-0, in the assay on MDA-N and in the assay on SF-539 was > 100 µM (inactive) each time. For the same compound, the GI50 with OVCAR-5, in the assay with RXF 393, in the assay on HCC 2998, in the assay with OVCAR-3, with UACC-257 and with EKVX was > 100 µM (inactive) throughout. Further, in the assay with HCT-116, the GI50 is > 100 µM (inactive).

Turning to `Cc1ccc(NC(=O)CC(=O)N2N=C(c3ccccc3)C(/N=N/c3ccc(S(=O)(=O)CCOS(=O)(=O)O)cc3)C2=O)cc1` (stereo unspecified), the GI50 was > 100 µM (inactive) in the assay with SNB-75; > 100 µM (inactive) in the assay with SF-295; > 100 µM (inactive) in the assay on MDA-MB-435; > 100 µM (inactive) in the assay with MOLT-4; 57.1 µM (inactive) with SK-MEL-2; > 100 µM (inactive) in the assay with K562. Besides, the GI50 is > 100 µM (inactive) with UO-31; > 100 µM (inactive) with PC-3; 60.5 µM (inactive) in the assay on 786-0; > 100 µM (inactive) in the assay on MDA-N; > 100 µM (inactive) in the assay with SF-539; > 100 µM (inactive) with OVCAR-5. For the same compound, the GI50 in the assay with RXF 393 was > 100 µM (inactive); in the assay with HCC 2998, > 100 µM (inactive); with OVCAR-3, > 100 µM (inactive); with UACC-257, > 100 µM (inactive); in the assay on EKVX it was > 100 µM (inactive); in the assay with HCT-116 it was 57.9 µM (inactive).

For the compound `O=[N+]([O-])c1ccc(S(=O)(=O)n2c3ccc(Br)cc3c3nc4ccccc4nc32)cc1`, the GI50 in the assay on SNB-75 is 77.6 µM (inactive); in the assay on SF-295 it was > 100 µM (inactive); in the assay on MDA-MB-435, > 100 µM (inactive); in the assay with MOLT-4, > 100 µM (inactive); in the assay with SK-MEL-2 it was > 100 µM (inactive); with OVCAR-4, > 100 µM (inactive). Also, the GI50 with K562 was 70.8 µM (inactive); with UO-31, > 100 µM (inactive); in the assay with UACC-62 it was > 100 µM (inactive); with PC-3, > 100 µM (inactive); in the assay with 786-0, > 100 µM (inactive); in the assay on MDA-N it was > 100 µM (inactive). Further, the GI50 with OVCAR-5, with RXF 393, with HCC 2998, in the assay on OVCAR-3, in the assay with UACC-257 and in the assay with HCT-116 was > 100 µM (inactive) each time.

For the compound `CCOC(=O)C1CCC(=O)N1C(=O)c1ccccc1Cl` (stereo unspecified), the GI50 in the assay on SNB-75, in the assay on SF-295, with MDA-MB-435, in the assay with MOLT-4, with K562 and with UO-31 was > 100 µM (inactive) in each case. Further, the GI50 in the assay on UACC-62 is 27.4 µM (inactive); with PC-3 it was > 100 µM (inactive); with 786-0, > 100 µM (inactive); in the assay on MDA-N it was > 100 µM (inactive); with SF-539, > 100 µM (inactive); in the assay on OVCAR-5 it was > 100 µM (inactive). Also, the GI50 with RXF 393, with HCC 2998, in the assay on OVCAR-3, in the assay on UACC-257, with EKVX and with HCT-116 was > 100 µM (inactive) throughout.

Turning to `C/C=C(\C)c1cc(=O)c2c(C)cc3c(c2o1)C(OC)(OC(C)=O)c1c(O)c(C2CC(C)(N(C)C)C(OC(C)=O)C(C)O2)cc(C2CC(N(C)C)C(OC(C)=O)C(C)O2)c1C3=O` (stereo unspecified), the GI50 in the assay on SNB-75 was 1.69 µM (inactive); in the assay with SF-295, 0.942 µM (active); with MDA-MB-435, 1.52 µM (inactive); in the assay on MOLT-4, 0.277 µM (active); in the assay on SK-MEL-2, 2.18 µM (inactive); in the assay with K562, 0.239 µM (active). Moreover, the GI50 with UO-31 is 1.57 µM (inactive); in the assay on UACC-62, 1.22 µM (inactive); in the assay on PC-3, 1.16 µM (inactive); in the assay on 786-0 it was 0.288 µM (active); in the assay on MDA-N it was 1.64 µM (inactive); in the assay on SF-539 it was 1.55 µM (inactive). For the same compound, the GI50 with OVCAR-5 was 2.17 µM (inactive); in the assay on RXF 393, 1.37 µM (inactive); in the assay with HCC 2998, 0.0218 µM (active); in the assay on OVCAR-3, 2.28 µM (inactive); in the assay on UACC-257, 1.55 µM (inactive); in the assay with EKVX, 1.07 µM (active). Moreover, the GI50 in the assay with HCT-116 is 0.286 µM (active).

Take `O=[N+]([O-])c1ccc2nc(Nc3ccccc3)c(Nc3ccccc3)nc2c1`: the GI50 is 2 µM (inactive) with SNB-75; 1.14 µM (inactive) in the assay with SF-295; 1.66 µM (inactive) with MDA-MB-435; 1.55 µM (inactive) with MOLT-4; 2.15 µM (inactive) in the assay with SK-MEL-2; 2.87 µM (inactive) in the assay with OVCAR-4. For the same compound, the GI50 in the assay with K562 was 2.04 µM (inactive); with UO-31 it was 1.21 µM (inactive); in the assay with UACC-62 it was 1.02 µM (active); in the assay on PC-3, 0.847 µM (active); in the assay on 786-0, 1.49 µM (inactive); with MDA-N it was 0.553 µM (active). Also, the GI50 was 1.58 µM (inactive) in the assay on SF-539; 2.64 µM (inactive) with OVCAR-5; 2.57 µM (inactive) with RXF 393; 1.25 µM (inactive) in the assay with HCC 2998; 2.15 µM (inactive) in the assay with UACC-257; 1.82 µM (inactive) in the assay with EKVX. In the assay with HCT-116, the GI50 was 0.555 µM (active).

Values taken from ChEMBL document CHEMBL1201862, “PubChem BioAssay data set” (2004).
